From paper PMC3462657 (Cancer letters, 2012)
Entries after “also recorded” stand apart in the source; their conditions may differ.

Columns and labels:
[1] = In vitro release from polymeric implants; format: in vitro ADME; conditions: for cumulative release over 3 weeks: 37°C
[2] = Tissue curcumin/curcuminoids levels by UPLC-fluorescence; format: in vivo, female A/J mice; conditions: for concentration at 21 days: female, A/J
[3] = test system: DBP-induced lung DNA adducts; test: Inhibition of DBP-DNA adducts in lung tissue, 32P-postlabeling; format: in vivo, female A/J mice; conditions: coated implants, DBP-treated mice, 3 weeks
[4] = test system: human lung cancer A549 xenograft; test: Effect on tumor xenograft
[5] = parameters: species or system mice; conditions: mouse, in vivo
[6] = coated implants, PBS + 10% bovine serum
[7] = implants of the individual curcuminoids, 21 days

## COc1cc(/C=C/C(O)=C/C(=O)/C=C/c2ccc(O)cc2)ccc1O [curcumin II, demethoxycurcumin]
[1]; [6]
  cumulative release over 3 weeks: 41.8%
[2]; mouse, in vivo, level in brain
  concentration at 21 days: 1 ng/g
[2]; mouse, in vivo, level in lung
  concentration at 21 days: 1.4 ± 0.4 ng/g

## O=C(/C=C/c1ccc(O)cc1)CC(=O)/C=C/c1ccc(O)cc1 [curcumin III, bisdemethoxycurcumin]
[1]; [6]
  cumulative release over 3 weeks: 51.4%
[2]; mouse, in vivo, level in brain
  concentration at 21 days: 6.4 ng/g
[2]; mouse, in vivo, level in liver
  concentration at 21 days: 5 to 6 ng/g
[2]; mouse, in vivo, level in lung
  concentration at 21 days: 49.7 ± 1.3 ng/g

## COc1cc(/C=C/C(=O)CC(=O)/C=C/c2ccc(O)c(OC)c2)ccc1O [curcumin I]
[2]; implants of the individual curcuminoids, 10% load, 21 days
  level in lung: 6.5 ± 1.6 ng/g lung
[2]; [7]
  level in brain: 1.4 ng/g tissue
  level in liver: 5–6 ng/g tissue

## Cc1c(-c2cnccn2)ssc1=S [oltipraz, reference compound]
[1]; coated implants agitated in PBS alone at 37°C
  release in PBS alone: essentially no release
[1]; coated implants, PBS + 10% bovine serum, after 21 days
  cumulative release: about 12%
[1]; coated implants, PBS + 10% bovine serum, after 60 days
  cumulative release: ~27%
[1]; coated implants, PBS + 10% bovine serum, over 60 days / eight weeks
  in vitro release pattern: almost zero-order kinetics
[3]
  effect on DBP-DNA adduct levels in lung: reduction was statistically significant
  lung DNA adducts: 28±7 adducts/10^9 nucleotides

## CC1=C(CO)C(=O)O[C@@H]([C@@H](C)[C@H]2CC[C@H]3[C@@H]4C[C@H]5O[C@]56[C@@H](O)C=CC(=O)[C@]6(C)[C@H]4CC[C@]23C)C1 [withaferin A]
[3]
  effect on DBP-DNA adduct levels in lung: reduction in the DNA adduct levels
[3]; listed as Withaferin A
  effect on DBP-DNA adduct levels in lung: diminished DNA adducts, but it was insignificant
[4]; calculated based on the residual amount in the implants
  total dose administered via the two implants: 2.69 mg
[4]; given via the implants
  effect on A549 xenograft: significantly inhibited
[4]; intraperitoneally 8 mg/kg, alternate days
  inhibition of the tumor: 53%
[4]; intraperitoneally, lower dose 4 mg/kg (same total dose as implants), 4 mg/kg
  effect on tumor: ineffective; also recorded: no reduction
[4]; via implants vs sham
  body weight at the end of the 8-week study: essentially the same body weight
[4]; via implants, two 1.5-cm, 5% load
  reduction in the growth of the tumor (tumor volume): 51%

## curcumin
[2]; mouse, in vivo
  composition of the three curcuminoids in lung tissue: essentially the same compositions
  ratio of the three curcuminoids in the liver: 74:18:8
[5]
  biochemical parameters of kidney function: No significant differences
  effect on body weight: no significant effect
  hematological parameters (white blood cells, red blood cells, hemoglobin): No significant differences
  liver enzymes: No significant differences
  neutrophils, lymphocytes, monocytes, eosinophils, and basophils: no statistical difference
